Where two headings read alike, the source gives them in different places.
How the values were obtained:
MAPKAP-K3 = MAPKAP-K3 (Homo sapiens, UniProt Q16644); experiment: Kinase screen: MAPKAP-K3 assay; format: biochemical; conditions: read-out: Mean Remaining Enzyme Activity (%)
Experimental: (§1) Generally, the same procedure was used for all assays. Since the total assay volume was 25.5 microliters, 0.5 microliters of inhibitors at 51× assay concentration were added to the plates before any other addition.
(§2) The basic procedure was to add 0.5 microliters inhibitor/control in DMSO to plate. Fifteen microliters of enzyme/substrate/buffer mix were added and incubated for 5 min. Ten microliters MgATP at the relevant concentration were added and incubated for 30 min. The assay was stopped by adding 5 microliters of 3% orthophosphoric acid. The assay was transferred to a p81 filter plate and read in a scintillation counter of 30 sec/well. Note that this assay procedure was not followed for MKK1, which instead involved a two-step assay, and PKC alpha, which required the addition of lipid vesicles.
MAPKAP-K3 assay: 5-20 mU of MAPKAP-K3 (diluted in 50 mM Tris (pH 7.5), 0.1 mM EGTA, 1 mg/ml BSA, 0.1%, b-Mercaptoethanol) was assayed against substrate peptide ([…]) (SEQ ID NO: 3) in a final volume of 25.5 μl containing 50 mM Tris (pH 7.5), 0.1 mM EGTA, 0.1%, b-Mercaptoethanol, 30 μM substrate peptide, 10 mM magnesium acetate and 0.02 mM [33P-g-ATP] (500-1000 cpm/pmole) and incubated for 30 mins at room temperature. Assays were stopped by addition of 5 μl of 0.5M (3%) orthophosphoric acid. Assays were harvested onto P81 Unifilter plates using a wash buffer of 50 mM orthophosphoric acid.

AURORA C = AURORA C (Homo sapiens, UniProt Q9UQB9); experiment: Kinase screen: Aurora C assay; format: biochemical; conditions: read-out: Mean Remaining Enzyme Activity (%)
Chain of AURORA C (Q9UQB9 whole entry): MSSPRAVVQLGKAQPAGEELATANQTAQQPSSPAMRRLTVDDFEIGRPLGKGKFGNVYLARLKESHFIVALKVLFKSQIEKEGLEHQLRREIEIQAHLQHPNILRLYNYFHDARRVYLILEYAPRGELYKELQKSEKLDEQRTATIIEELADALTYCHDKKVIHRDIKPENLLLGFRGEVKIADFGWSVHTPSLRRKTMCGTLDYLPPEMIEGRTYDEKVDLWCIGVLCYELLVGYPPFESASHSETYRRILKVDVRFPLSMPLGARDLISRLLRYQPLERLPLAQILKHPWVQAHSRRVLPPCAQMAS
Experimental: as §1, §2
Aurora C assay: Aurora C (5-20 mU diluted in 50 mM Tris pH 7.5, 0.1 mM EGTA, 0.1% b-mercaptoethanol, 1 mg/ml BSA) was assayed against a substrate peptide ([…]) (SEQ ID NO: 26) in a final volume of 25.5 μl containing 50 mM Tris pH 7.5, 0.05% b-mercaptoethanol, 300 μM substrate peptide, 10 mM magnesium acetate and 0.005 mM [33P-g-ATP] (50-1000 cpm/pmole) and incubated for 30 min at room temperature. Assays were stopped by addition of 5 μl of 0.5 M (3%) orthophosphoric acid and then harvested onto P81 Unifilter plates with a wash buffer of 50 mM orthophosphoric acid.

CCRF-CEM = conditions: for Mean Optical Densities / Percent Growth: CCRF-CEM
EKVX = conditions: for Mean Optical Densities / Percent Growth: EKVX
HL-60(TB) = experiment: cells; conditions: Homo sapiens
HCT-15 = experiment: cells; conditions: Homo sapiens
SF-539 = experiment: cells; conditions: Homo sapiens
SNB-19 = experiment: cells; conditions: Homo sapiens
SK-OV-3 = experiment: cells; conditions: Homo sapiens
ACHN = experiment: cells; conditions: Homo sapiens
CAKI-1 = experiment: cells; conditions: Homo sapiens
DU-145 = experiment: cells; conditions: Homo sapiens
[1] = RXF 393, log10 concentration −4.0
[2] = RXF 393, log10 concentration −5.0
[3] = RXF 393, log10 concentration −6.0
[4] = RXF 393, log10 concentration −7.0
[5] = RXF 393, log10 concentration −8.0
[6] = UO-31, log10 concentration −4.0
[7] = UO-31, log10 concentration −5.0
[8] = UO-31, log10 concentration −6.0
[9] = UO-31, log10 concentration −7.0
[10] = UO-31, log10 concentration −8.0
[11] = MDA-MB-435, log10 concentration −4.0
[12] = MDA-MB-435, log10 concentration −5.0
[13] = MDA-MB-435, log10 concentration −6.0
[14] = MDA-MB-435, log10 concentration −7.0
[15] = MDA-MB-435, log10 concentration −8.0

Chain of MAPKAP-K3 (Q16644 whole entry, species assumed): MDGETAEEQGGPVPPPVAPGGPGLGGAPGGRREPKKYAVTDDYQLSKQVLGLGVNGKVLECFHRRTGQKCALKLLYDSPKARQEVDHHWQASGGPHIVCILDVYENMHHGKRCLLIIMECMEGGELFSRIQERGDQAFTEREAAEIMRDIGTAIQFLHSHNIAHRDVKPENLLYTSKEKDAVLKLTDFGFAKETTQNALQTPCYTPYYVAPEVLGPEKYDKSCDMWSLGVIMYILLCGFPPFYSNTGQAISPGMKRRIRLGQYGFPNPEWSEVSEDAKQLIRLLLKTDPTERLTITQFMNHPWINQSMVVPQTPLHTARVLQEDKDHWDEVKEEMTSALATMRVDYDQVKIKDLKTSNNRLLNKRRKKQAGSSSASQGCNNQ

## CC(C)c1cnn2c(NCc3ccccc3)cc(NCCCCCCCN)nc12 [BS-181]
MAPKAP-K3
  remaining activity at 10 µM: 119%
AURORA C
  remaining activity at 10 µM: 98%

## CC(C)c1cnn2c(NCc3ccccc3)cc(N[C@@H](CO)[C@H](O)CO)nc12 [ICEC0318, (3S)-3-(7-(Benzylamino)-3-isopropylpyrazolo[1,5-a]pyrimidin-5-ylamino)butane-1,2,4-triol]
CCRF-CEM; CCRF-CEM (Leukemia)
  TGI: >1.00E−4
CCRF-CEM; log10 concentration −4.0
  Mean Optical Densities: 0.227
  Percent Growth: 11%
CCRF-CEM; log10 concentration −5.0
  Mean Optical Densities: 0.330
  Percent Growth: 33%
CCRF-CEM; log10 concentration −6.0
  Mean Optical Densities: 0.279
  Percent Growth: 22%
CCRF-CEM; log10 concentration −7.0
  Mean Optical Densities: 0.565
  Percent Growth: 82%
CCRF-CEM; log10 concentration −8.0
  Mean Optical Densities: 0.769
  Percent Growth: 125%
EKVX; EKVX (Non-Small Cell Lung Cancer)
  TGI: >1.00E−4
EKVX; log10 concentration −4.0
  Mean Optical Densities: 0.740
  Percent Growth: 4%
EKVX; log10 concentration −5.0
  Mean Optical Densities: 0.817
  Percent Growth: 9%
EKVX; log10 concentration −6.0
  Mean Optical Densities: 0.841
  Percent Growth: 11%
EKVX; log10 concentration −7.0
  Mean Optical Densities: 1.830
  Percent Growth: 83%
EKVX; log10 concentration −8.0
  Mean Optical Densities: 2.035
  Percent Growth: 98%
RXF 393; RXF 393 (Renal Cancer)
  TGI: 5.27E−7
RXF 393; [1]
  Mean Optical Densities: 0.239
  Percent Growth: −54%
RXF 393; [2]
  Mean Optical Densities: 0.308
  Percent Growth: −40%
RXF 393; [3]
  Mean Optical Densities: 0.333
  Percent Growth: −35%
RXF 393; [4]
  Mean Optical Densities: 0.928
  Percent Growth: 92%
RXF 393; [5]
  Mean Optical Densities: 0.980
  Percent Growth: 103%
UO-31; UO-31 (Renal Cancer)
  TGI: 2.07E−5
UO-31; [6]
  Mean Optical Densities: 0.522
  Percent Growth: −4%
UO-31; [7]
  Mean Optical Densities: 0.557
  Percent Growth: 2%
UO-31; [8]
  Mean Optical Densities: 0.578
  Percent Growth: 4%
UO-31; [9]
  Mean Optical Densities: 1.371
  Percent Growth: 89%
UO-31; [10]
  Mean Optical Densities: 1.378
  Percent Growth: 90%
MDA-MB-435; MDA-MB-435 (Breast Cancer)
  TGI: 1.15E−5
MDA-MB-435; [11]
  Mean Optical Densities: 0.242
  Percent Growth: −48%
MDA-MB-435; [12]
  Mean Optical Densities: 0.511
  Percent Growth: 3%
MDA-MB-435; [13]
  Mean Optical Densities: 0.659
  Percent Growth: 13%
MDA-MB-435; [14]
  Mean Optical Densities: 1.781
  Percent Growth: 86%
MDA-MB-435; [15]
  Mean Optical Densities: 2.132
  Percent Growth: 109%
HL-60(TB); HL-60
  GI50: 0.166 µM
HL-60(TB); HL-60, read-out: LC50
  CC50: > 100 µM
HCT-15; HCT-15
  GI50: 0.377 µM
HCT-15; HCT-15, read-out: LC50
  CC50: > 100 µM
SF-539; SF-539
  GI50: 0.199 µM
SF-539; SF-539, read-out: LC50
  CC50: 6.85 µM
SNB-19; SNB-19
  GI50: 0.283 µM
SNB-19; SNB-19, read-out: LC50
  CC50: > 100 µM
SK-OV-3; SK-OV-3
  GI50: 0.565 µM
SK-OV-3; SK-OV-3, read-out: LC50
  CC50: > 100 µM
ACHN
  GI50: 0.233 µM
ACHN; read-out: LC50
  CC50: > 100 µM
CAKI-1; CAKI-1
  GI50: 0.249 µM
CAKI-1; CAKI-1, read-out: LC50
  CC50: > 100 µM
DU-145; DU-145
  GI50: 0.377 µM
DU-145; DU-145, read-out: LC50
  CC50: > 100 µM

Source: patent US8067424B2, “Selective inhibitors for cyclin-dependent kinases” (Emory University, priority 2007, dated 2011)
